Square brackets hold non-standard residues; d marks the D form. Peptide text beside a SMILES is read from it. pY = N[C@@H](Cc1ccc(OP(=O)(O)O)cc1)C(=O)O
How the values were obtained:
reduced Csk L-SH2 = target: T1, reduced Csk L-SH2 (Homo sapiens, UniProt P41240); assay: Fluorescence titration of reduced Csk L-SH2 with Cbp peptide; type: binding; conditions: 10-residue Cbp peptide, Csk SH2, redox form not given
T1 construct: made in house
T1 sequence (P41240 73-178): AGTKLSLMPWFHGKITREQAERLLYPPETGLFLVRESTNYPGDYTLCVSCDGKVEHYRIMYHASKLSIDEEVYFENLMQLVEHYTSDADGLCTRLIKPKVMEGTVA
Method: Fluorescence titrations were performed at 25 °C in 3 mL of 50 mmol/L Tris-HCl (pH 7.5) using excitation and emission wavelengths of 288 nm and 320 nm, respectively. The 10-residue synthetic phosphopeptide corresponding to the specific SH2-binding site in Cbp was titrated with the L-SH2 sample. The typically adopted protein concentration is 5 μmol/L. For the denaturation experiments, ultrapure guanidine hydrochloride (Sigma S0933) was used. Proteins were exposed to guanidine hydrochloride concentrations ranging from 0 to 6 mol/L at 0.1–0.2 mol/L steps. The concentrations of guanidine hydrochloride of the solutions were determined by measuring the index of refraction and by using the following equation: d/d 0 = 1 + 0.2710 W + 0.0330 W ^2 (Tanford et al. [1966]), where W is the weight fraction of guanidine hydrochloride in the solution, d is the density of the solution, and d 0 is the density of water. Reversibility of the guanidine hydrochloride-induced unfolding reaction and the time necessary to re-establish equilibrium were determined by diluting a concentrated protein solution containing 6 mol/L guanidine hydrochloride into the buffer and by monitoring the fluorescence spectrum of the protein as a function of time. […] F unf values were calculated from the linear extrapolation of the pre- and post-unfolding baselines. […]

full-length Csk = conditions: ref Kemble and Sun [2009]; cited from earlier work
Excerpt: Disulfide bonds are mostly found in secretory proteins and in extracellular domains of membrane proteins. Cytosolic proteins, which contain cysteine residues that are in close proximity to each other, may function as oxidation sensors; when the reductive potential of the cell fails, they oxidize and trigger cellular response mechanisms (Sevier and Kaiser [2002]). Mills et al. studied the unique disulfide bond of Csk SH2 that is absent in other known SH2 domains.

Csk L-SH2 disulfide bond = assay: NMR-monitored reduction of oxidized SH2 by DTT; type: physicochemical, human; conditions: 10 mmol/L DTT, pH 7.5, NMR
Excerpt: During purification of the Csk L-SH2 domain, 50 mmol/L DTT was used to elute the protein from the chitin resin. The L-SH2 was used in reduced form, given that DTT was used to cleave L-SH2 from its intein fusion partner. Following elution of the protein from the ion exchange column, the L-SH2 became a mixture of the reduced and oxidized forms. The fully oxidized form was obtained by exposing the protein to air for several days.
Fig. 3 Comparison of the oxidized and reduced form of SH2. A Comparison of ^1H–^15N HSQC of oxidized (red) and reduced (green) SH2. B Combined chemical shift change of oxidized and reduced form SH2. The difference was calculated as ∆δ tot = [(∆δ H)^2 + (0.154∆δ N)^2]^1/2. […]
All NMR experiments were performed at 298 K on 800 MHz spectrometers equipped with triple-resonance cryoprobes. […] The combined change in chemical shift of a particular residue upon ligation with the kinase domain was calculated as ∆δ = [(∆δ H)^2 + (0.154∆δ N)^2]^1/2, where ∆δ H and ∆δ N correspond to the changes in amide proton and nitrogen chemical shift, respectively. The weight factor for ^1H and ^15N is determined from the ratio of the average variances of the amide nitrogen and proton chemical shifts observed for the 20 common amino acid residues in proteins deposited in the BioMagResBank (Mulder et al. [1999]). […]

Structure (SMILES)	affinity of Cbp peptide for Csk SH2 (in words) (reduced Csk L-SH2)	activation of Csk (full-length Csk)	time sufficient to reduce the SH2 domain (Csk L-SH2 disulfide bond) [h]
CC[C@H](C)[C@H](N)C(=O)N[C@@H](CO)C(=O)N[C@@H](C)C(=O)N[C@@H](CCSC)C(=O)N[C@@H](Cc1ccc(OP(=O)(O)O)cc1)C(=O)N[C@@H](CO)C(=O)N[C@@H](CO)C(=O)N[C@H](C(=O)N[C@@H](CC(N)=O)C(=O)N[C@@H](CCCCN)C(=O)O)C(C)C [Cbp peptide] (H-ISAM[pY]SSVNK-OH)	affinity at the µmol/L level		
O[C@@H](CS)[C@@H](O)CS [DTT, reference compound]		mildly activated	≤ 10

Source: PMC5071372, “Combining biophysical methods to analyze the disulfide bond in SH2 domain of C-terminal Src kinase” (Biophysics Reports, 2016)
